From patent US20210015886A1, “COMPOSITION FOR IMPROVING MILD COGNITIVE IMPAIRMENT AND METHOD FOR IMPROVING MILD COGNITIVE IMPAIRMENT” (TOKAI BUSSAN CO., LTD., priority 2019, published 2021)

How the values were obtained:
[1] = stated as known; cited from earlier work
[2] = Antioxidant activity against hydroxyl radicals (degradation of target protein, FIG. 2A); assay type: biochemical; details: prevention of degradation of target protein
Excerpt: FIG. 2A is a hydroxyl radical, in which 1 is untreated target protein, 2 is no antioxidant added, 3 is IMDP added, 4 is vitamin C added, 5 is ferulic acid added, 6 is IMDP+vitamin C+ferulic acid added; and
(§1) Therefore, by coexisting with these antioxidants, the antioxidant effect of IMDP is retained both for hydroxyl radicals and peroxynitrite radicals.

[3] = Antioxidant activity against peroxynitrite radicals (proteolytic action on target protein, FIG. 2B); assay type: biochemical; details: prevention of degradation of target protein
Excerpt: FIG. 2B is a proteolytic action by a peroxynitrite radical.
as §1

[4] = stated as known; cited from earlier work; remark: listed apart in the source

vitamin E
antioxidant activity against hydroxyl radicals (known) [1]: strong antioxidant activity

COc1cc(/C=C/C(=O)O)ccc1O [ferulic acid]
antioxidant activity against hydroxyl radicals [2]: strong antioxidant activity

O=C1O[C@H]([C@@H](O)CO)C(O)=C1O [vitamin C]
antioxidant activity against peroxynitrite radicals [3]: strong antioxidant activity
antioxidant activity against peroxynitrite radicals (known) [4]: strong antioxidant activity

CC1=C(/C=C/C(C)=C/C=C/C(C)=C/C=C/C=C(C)/C=C/C=C(C)/C=C/C2=C(C)C(=O)[C@@H](O)CC2(C)C)C(C)(C)C[C@H](O)C1=O [astaxanthin]
antioxidant activity against hydroxyl radicals (known) [1]: strong antioxidant activity
